Measurements: publication PMC6550521, “Stress-Induced Changes in the Lipid Microenvironment of β-(1,3)-D-Glucan Synthase Cause Clinically Important Echinocandin Resistance in Aspergillus fumigatus” (mBio, 2019)
pIC50: −log10 of the molar value. Starred links: 1 amine or outer side, 2 acyl side, 3 side chain; linkers in the order of their positions; H or OH if unused. Positions of bridges follow the written chain, without caps; N, C: chain ends. Non-standard residues stand in square brackets, D forms with d. Residues, ends and D or L forms follow the SMILES beside them. *: point of attachment. Orn(4R-OH,5R-OCH2CH2NMe3+) = C[N+](C)(C)CCO[C@@H](N[*:3])[C@H](O)C[C@H](N[*:1])C(=O)[*:2]; hTyr(3S-OH,4S-OH,3'-OSO3H) = N[C@H](C(=O)O)[C@H](O)[C@@H](O)c1ccc(O)c(OS(=O)(=O)O)c1; pTerphenylCO(4''-OnC5H11) = CCCCCOc1ccc(-c2ccc(-c3ccc(C(=O)*)cc3)cc2)cc1; Orn(4R-OH,5R-OH) = O=C([C@H](C[C@@H](O)[C@@H](O)N[*:3])N[*:1])[*:2]; hTyr(3S-OH,4S-OH) = N[C@H](C(=O)O)[C@H](O)[C@@H](O)c1ccc(O)cc1; Pro(3S-OH,4S-Me) = C[C@H]1CN[C@H](C(=O)O)[C@H]1O; X1 = CCCCCOc1ccc(-c2cc(-c3ccc(C(=O)*)cc3)no2)cc1; Gln(3R-OH) = NC(=O)C[C@@H](O)[C@H](N)C(=O)O; Hyp = O=C(O)[C@@H]1C[C@@H](O)CN1

Tests used:
[1] = system: reactive oxygen species (ROS) in A. fumigatus RG101; assay: ROS production, DCFDA fluorescence assay; assay type: cell-based, Aspergillus fumigatus; details: RG101
Method: ROS production in mycelia was measured using a protocol previously described by Blatzer et al. ([51]) with a few changes. Suspensions of 10^4 spores/ml of ATCC 13073 and RG101 were grown in static culture in complete supplement mixture (CSM) medium for 16 h in a 96-well microplate at 37°C. After incubation, the mycelia were washed once with CSM, 10 μM 2′,7′–dichlorofluorescin diacetate (DCFDA) dye was added, and cells were incubated in the dark at 37°C for 30 min. Cells were then washed three times with phosphate-buffered saline (PBS), and a final concentration of 1 μg/ml of each echinocandin in CSM medium was added to different wells. Fluorescence intensity (excitation at 485 nm and emission at 530 nm) was measured for 1 h in a microplate reader (Tecan Infinite M200 Pro). Mycelia stained with DCFDA without any drug were used as a control.

[2] = system: A. fumigatus ATCC 13073; assay: Antifungal susceptibility testing (MEC, CLSI M38-A2); assay type: cell-based, Aspergillus fumigatus; details: for Drug susceptibility testing result, ATCC 13073: 24 h, Fig 1B
Method: (§1) Minimum effective concentrations (MECs) for A. fumigatus strains were determined according to CLSI document M38-A2 ([48]) and defined as the lowest drug concentration that led to the growth of small, rounded, compact hyphal forms compared to the hyphal growth seen in the drug-free growth control wells. The following drugs (supplier) were tested: caspofungin (Merck & Co., Inc.), micafungin (Astellas Pharma US, Inc.), anidulafungin (Pfizer Inc.), itraconazole (Sigma-Aldrich), voriconazole (Pfizer Inc.), and amphotericin B (Sigma-Aldrich). In addition, rezafungin and ibrexafungerp were obtained from Cidara Therapeutics and Scynexis Inc., respectively.

[3] = system: A. fumigatus RG101; assay type: cell-based, Aspergillus fumigatus; details: for Drug susceptibility testing result, RG101 / Growth phenotype of RG101 with drug alone: 24 h; for Drug susceptibility testing result, RG101: Fig 1B; for Growth phenotype of RG101 with drug alone: 1 μg/ml drug, RPMI 1640, absence of CAS
Method: The following drugs (supplier) were tested: caspofungin (Merck & Co., Inc.), micafungin (Astellas Pharma US, Inc.), anidulafungin (Pfizer Inc.), itraconazole (Sigma-Aldrich), voriconazole (Pfizer Inc.), and amphotericin B (Sigma-Aldrich). In addition, rezafungin and ibrexafungerp were obtained from Cidara Therapeutics and Scynexis Inc., respectively.

[4] = system: A. fumigatus S679P (fks1 Ser-679-Pro mutant); assay: Antifungal susceptibility testing (MEC, CLSI M38-A2); assay type: cell-based, Aspergillus fumigatus
Method: as §1

[5] = system: Aspergillus fumigatus clinical isolate 68284B; assay: as above; assay type: cell-based; details: fks1 WT
Method: as §1

[6] = system: Aspergillus fumigatus clinical isolate 117; assay: as above; assay type: cell-based; details: clinical isolate 117, fks1 WT
Method: as §1

[7] = system: Aspergillus fumigatus clinical isolate 32458; assay: as above; assay type: cell-based; details: clinical isolate 32458, fks1 WT
Method: as §1

[8] = system: Aspergillus fumigatus clinical isolate 32315; assay: as above; assay type: cell-based; details: clinical isolate 32315, fks1 WT
Method: as §1

[9] = system: Aspergillus fumigatus clinical isolate 2770; assay: as above; assay type: cell-based; details: clinical isolate 2770, fks1 WT
Method: as §1

[10] = system: A. fumigatus RG101; assay: Acute pulmonary aspergillosis model in neutropenic DBA/2 mice, lung fungal burden by qPCR; assay type: in vivo, Aspergillus fumigatus
Method: Resistance of RG101 to CAS in vivo was tested in an acute pulmonary aspergillosis model. Thirty inbred DBA/2 mice were rendered neutropenic and infected with 1 × 10^6 RG101 conidia intratracheally. The mice were then treated with CAS (5 mg/kg of body weight), MFG (5 mg/kg), or vehicle daily for 5 days, and lung burdens were determined using quantitative PCR (qPCR). Details of the experiment are provided in Text S1 in the supplemental material.
All animal experiments performed were approved by the Rutgers University Institutional Animal Care and Use Committee. Thirty female DBA/2 mice [The Jackson Laboratory, Bar Harbor, ME] were used in the experiment. The mice were housed in cages equipped with HEPA filters and were allowed free access to food and water. To establish neutropenia, mice were immunosuppressed with cyclophosphamide on days -4 (150 mg/kg), -1 and +2 (100 mg/kg) intraperitoneally (ip) and hydrocortisone on day -1 (200 mg/kg) via subcutaneous injection (sc). The animals were given prophylaxis sc ceftazidime (50 mg/kg) on all days to prevent secondary bacterial infections. A. fumigatus RG101 was streaked out from a frozen glycerol stock and cultured on Potato dextrose agar (PDA) slant for 2 days. The spores were harvested in phosphate-buffered saline (PBS) with 0.05% (v/v) Tween 20 and counted in a hemocytometer. The mice were briefly anesthetized IP Ketamine (65 mg/kg)/Xylazine (5 mg/kg) and infected with 1×10^6 spores of RG101 in 25 µL volume via intratracheal instillation. The 30 RG101 infected mice were randomized into following treatment arms for IP treatment: vehicle, CAS (5 mg/kg), and MFG (5 mg/kg). The first treatment was given at 3 h post infection (PI) and continued daily treatments were administered. On day 5 PI, mice were humanely euthanized via CO2 narcosis. Lungs were excised and homogenized in 1 ml of sterile PBS using a 2 ml tube containing ceramic spheres by MP Biomedicals (116913500). Tissue was then homogenized in 20 s bursts in a mini bead beater (MP FastPrep-24) followed by cooling on ice. DNA was then isolated from an aliquot of the lung homogenate (100 μl) using the QIAamp DNA Mini Kit by Qiagen (51304) and analyzed by real-time quantitative PCR (qPCR) using primers specific for A. fumigatus 18S rRNA genes (Wiederhold et al 2004).

[11] = target: β-(1,3)-D-glucan synthase of RG101 (Aspergillus fumigatus, UniProt Q4WLT4); assay: Glucan synthase kinetic inhibition assay, enzyme from RG101; assay type: biochemical; details: enzyme from RG101 grown at 4 μg/ml CAS
Sequence of β-(1,3)-D-glucan synthase of RG101 (Q4WLT4 1-1904): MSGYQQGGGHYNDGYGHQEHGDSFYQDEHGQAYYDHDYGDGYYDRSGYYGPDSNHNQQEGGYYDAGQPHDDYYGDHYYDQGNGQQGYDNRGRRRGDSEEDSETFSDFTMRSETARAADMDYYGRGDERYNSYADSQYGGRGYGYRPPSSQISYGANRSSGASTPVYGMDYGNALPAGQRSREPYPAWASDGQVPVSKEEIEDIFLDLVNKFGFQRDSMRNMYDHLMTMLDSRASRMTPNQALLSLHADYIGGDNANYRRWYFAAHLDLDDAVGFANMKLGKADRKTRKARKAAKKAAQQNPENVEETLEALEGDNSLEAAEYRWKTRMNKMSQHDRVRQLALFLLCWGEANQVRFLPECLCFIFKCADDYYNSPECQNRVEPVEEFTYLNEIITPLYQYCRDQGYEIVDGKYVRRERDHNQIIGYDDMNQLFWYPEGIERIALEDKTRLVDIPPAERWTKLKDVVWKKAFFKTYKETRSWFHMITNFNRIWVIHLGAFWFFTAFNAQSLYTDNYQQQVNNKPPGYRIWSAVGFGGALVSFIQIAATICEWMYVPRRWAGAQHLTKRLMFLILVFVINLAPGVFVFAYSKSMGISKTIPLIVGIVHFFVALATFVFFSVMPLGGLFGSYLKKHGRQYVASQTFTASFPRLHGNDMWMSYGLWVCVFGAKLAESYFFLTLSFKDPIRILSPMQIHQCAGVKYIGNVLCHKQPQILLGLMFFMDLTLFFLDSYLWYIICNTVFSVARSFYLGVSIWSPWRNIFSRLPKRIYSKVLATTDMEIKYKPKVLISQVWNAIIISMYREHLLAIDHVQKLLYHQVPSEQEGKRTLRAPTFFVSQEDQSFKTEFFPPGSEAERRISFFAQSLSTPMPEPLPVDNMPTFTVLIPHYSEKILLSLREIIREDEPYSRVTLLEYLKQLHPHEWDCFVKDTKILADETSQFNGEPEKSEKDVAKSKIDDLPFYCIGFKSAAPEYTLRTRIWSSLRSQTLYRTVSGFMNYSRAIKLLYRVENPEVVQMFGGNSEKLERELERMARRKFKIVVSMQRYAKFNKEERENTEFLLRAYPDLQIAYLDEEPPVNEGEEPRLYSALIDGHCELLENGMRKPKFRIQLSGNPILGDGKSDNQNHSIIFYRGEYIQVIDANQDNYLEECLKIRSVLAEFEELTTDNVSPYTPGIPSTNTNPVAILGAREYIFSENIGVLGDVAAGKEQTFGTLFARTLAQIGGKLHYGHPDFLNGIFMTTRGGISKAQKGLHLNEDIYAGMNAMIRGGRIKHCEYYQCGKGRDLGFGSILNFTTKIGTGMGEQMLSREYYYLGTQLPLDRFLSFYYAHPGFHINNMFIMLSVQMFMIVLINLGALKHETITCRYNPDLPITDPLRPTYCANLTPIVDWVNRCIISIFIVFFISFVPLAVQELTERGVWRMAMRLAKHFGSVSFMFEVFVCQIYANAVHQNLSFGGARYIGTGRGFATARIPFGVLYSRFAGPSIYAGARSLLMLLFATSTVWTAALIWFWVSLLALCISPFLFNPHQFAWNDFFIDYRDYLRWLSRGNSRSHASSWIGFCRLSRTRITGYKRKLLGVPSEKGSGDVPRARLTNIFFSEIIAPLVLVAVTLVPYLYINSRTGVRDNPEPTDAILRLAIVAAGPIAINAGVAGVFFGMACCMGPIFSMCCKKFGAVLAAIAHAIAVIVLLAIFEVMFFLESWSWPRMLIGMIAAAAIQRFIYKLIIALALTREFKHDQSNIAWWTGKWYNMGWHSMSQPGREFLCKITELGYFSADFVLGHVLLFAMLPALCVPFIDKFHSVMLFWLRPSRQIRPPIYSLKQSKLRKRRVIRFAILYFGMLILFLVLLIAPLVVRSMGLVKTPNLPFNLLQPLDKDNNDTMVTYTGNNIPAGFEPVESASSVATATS
Method: ATCC 13073 or RG101 was grown in liquid YPD medium at 37°C for 16 h. Partially purified glucan synthase was isolated by the product entrapment method, as previously described ([21]). Sensitivity to echinocandin drugs was measured by glucan synthase assay, using a 96-well multiscreen high-throughput screen filtration system (Millipore Corporation, Bedford, MA) in a final volume of 100 μl. Inhibition of the enzyme by the drug was analyzed after incubation of the enzyme with a radioactive substrate over a broad range of concentrations (0 to 10,000 ng/ml) of echinocandins for 1 h at room temperature. Radioactivity from the enzyme product, β-(1,3)-D-glucan, was measured. Inhibition profiles were determined using a sigmoidal response curve fitting algorithm with GraphPad Prism software (v 7.04).
To study the effect of lipids on the enzyme, dihydrosphingosine, phytosphingosine, or phytoceramide C2 (Sigma-Aldrich D6783, P2795, and C8105, respectively) was added directly to the assay mixture and coincubated with an echinocandin for 1 h at room temperature.

[12] = thiourea 15 mM with CAS 1 μg/ml

SMILES	Drug susceptibility testing result, ATCC 13073 [2]	Drug susceptibility testing result, RG101 [3]	Growth phenotype of RG101 with drug in combination with CAS [3]	Growth phenotype of RG101 with drug alone [3]	further results
CCCCCC[C@H]1C(=O)O[C@H](C)[C@H](NC(=O)c2cccc(NC=O)c2O)C(=O)O[C@@H](C)[C@@H]1OC(=O)CC(C)C [antimycin A]					Decrease of CAS-induced ROS production ([1]; 0.5 μg/ml antimycin A): over 2 fold
CCC(C)n1ncn(-c2ccc(N3CCN(c4ccc(OCC5COC(Cn6cncn6)(c6ccc(Cl)cc6Cl)O5)cc4)CC3)cc2)c1=O (stereo not drawn) [Itraconazole, itraconazole]	0.5 µg/mL	0.5 µg/mL			
C[C@@H](c1ncncc1F)[C@](O)(Cn1cncn1)c1ccc(F)cc1F [Voriconazole, voriconazole]	0.12 µg/mL	0.12 µg/mL			
NC(N)=S [thiourea]					Effect on CAS resistance of S679P [4, 12]: no effect; Effect on CAS phenotype of ATCC 13073 [2, 12]: no change; Effect on CAS-induced breakthrough resistance phenotype of RG101 [3, 12]: reversed; Reduction of CAS-induced ROS levels ([1]; 15 mM thiourea): 4 fold
CCCCCOc1ccc(-c2ccc(-c3ccc(C(=O)N[C@H]4C[C@@H](O)[C@@H](O)NC(=O)[C@@H]5[C@@H](O)[C@@H](C)CN5C(=O)[C@H]([C@@H](C)O)NC(=O)[C@H]([C@H](O)[C@@H](O)c5ccc(O)cc5)NC(=O)[C@@H]5C[C@@H](O)CN5C(=O)[C@H]([C@@H](C)O)NC4=O)cc3)cc2)cc1 [ANF, anidulafungin] ({pTerphenylCO(4''-OnC5H11)}-[Orn(4R-OH,5R-OH)]T[Hyp][hTyr(3S-OH,4S-OH)]T[Pro(3S-OH,4S-Me)]; lactam 1-C)	0.03 µg/mL	0.03 µg/mL	cross-resistance	sensitive	
CCCCCOc1ccc(-c2cc(-c3ccc(C(=O)N[C@H]4C[C@@H](O)[C@@H](O)NC(=O)[C@@H]5[C@@H](O)[C@@H](C)CN5C(=O)[C@H]([C@H](O)CC(N)=O)NC(=O)[C@H]([C@H](O)[C@@H](O)c5ccc(O)c(OS(=O)(=O)O)c5)NC(=O)[C@@H]5C[C@@H](O)CN5C(=O)[C@H]([C@@H](C)O)NC4=O)cc3)no2)cc1 [MFG, micafungin] (X1-[Orn(4R-OH,5R-OH)]T[Hyp][hTyr(3S-OH,4S-OH,3'-OSO3H)][Gln(3R-OH)][Pro(3S-OH,4S-Me)]; lactam 1-C)	0.03 µg/mL	0.03 µg/mL	cross-resistance	sensitive	MEC (minimum effective concentration) ([4]; S679P, fks1 Ser-679-Pro): 16 µg/mL; MEC (minimum effective concentration) ([2]; ATCC 13073, fks1 WT): 0.03 µg/mL; MEC (minimum effective concentration) [5]: 4 µg/mL; MEC (minimum effective concentration) [6]: 4 µg/mL; MEC (minimum effective concentration) [7]: 2 µg/mL; MEC (minimum effective concentration) [8]: 2 µg/mL; MEC (minimum effective concentration) [9]: 2 µg/mL; Decrease in lung burden versus vehicle-treated group ([10]; RG101, 5 mg/kg daily for 5 days): ~5 fold; Average fungal lung burden ([10]; RG101 intratracheal, 5 mg/kg daily IP for 5 days, qPCR): 5.2 ng fungal DNA per lung; pIC50 [11]: < 5.10
CCCCCOc1ccc(-c2ccc(-c3ccc(C(=O)N[C@H]4C[C@@H](O)[C@@H](OCC[N+](C)(C)C)NC(=O)[C@@H]5[C@@H](O)[C@@H](C)CN5C(=O)[C@H]([C@@H](C)O)NC(=O)[C@H]([C@H](O)[C@@H](O)c5ccc(O)cc5)NC(=O)[C@@H]5C[C@@H](O)CN5C(=O)[C@H]([C@@H](C)O)NC4=O)cc3)cc2)cc1 [RZF, rezafungin] ({pTerphenylCO(4''-OnC5H11)}-[Orn(4R-OH,5R-OCH2CH2NMe3+)]T[Hyp][hTyr(3S-OH,4S-OH)]T[Pro(3S-OH,4S-Me)]; lactam 1-C)			cross-resistance	sensitive	
C[C@@H]1[C@H](O)[C@@H](C)/C=C/C=C/C=C/C=C/C=C/C=C/C=C/[C@H](O[C@@H]2O[C@H](C)[C@@H](O)[C@H](N)[C@@H]2O)C[C@@H]2O[C@](O)(C[C@@H](O)C[C@@H](O)[C@H](O)CC[C@@H](O)C[C@@H](O)CC(=O)O[C@H]1C)C[C@H](O)[C@H]2C(=O)O [Amphotericin B, amphotericin B]	0.5 µg/mL	0.5 µg/mL			
CC(C)[C@@H](C)[C@@]1(C)CC[C@]2(C)[C@H]3CC[C@@H]4[C@@]5(COC[C@@]4(C)[C@@H](OC[C@](C)(N)C(C)(C)C)[C@H](n4ncnc4-c4ccncc4)C5)C3=CC[C@@]2(C)[C@@H]1C(=O)O [IFG, ibrexafungerp]			cross-resistance	sensitive	
